Measured values as given in patent US20230338398A1, “USE OF DELTA-8-THC TO TREAT INFLAMMATORY AND AUTOIMMUNE DISEASES” (UNIVERSITY OF SOUTH CAROLINA, priority 2022, published 2023).
“Also recorded” adds a separate entry of the source.

Tests used:
[1] = system: Experimental Autoimmune Encephalomyelitis (EAE); experiment: Experimental Autoimmune Encephalomyelitis (EAE) model: clinical score and body weight; type: in vivo; details: EAE C57BL/6 mice, 10 mg/kg intraperitoneally every day from day 10, vs vehicle
Experimental: 6-8 weeks old Female C57BL/6 mice were purchased from Jackson Laboratory (Bar Harbor, ME). Animals colonies were maintained in accordance with Federal regulations and guidelines set by the animal facility of the University of South Carolina Institutional Animal Care and Use Committee (IACUC). Mice were housed in a single room under controlled temperature (22° C.), identical SPF, 50% relative humidity, and photoperiods (12:12 hours light/dark cycle). Animals were allowed unlimited access (ad libitum feeding) to autoclaved drinking water and a standard irradiated soy-free mouse chow. The health of the animals was monitored daily by the veterinarian in the animal facility.
EAE is a model for human Multiple Sclerosis. EAE was induced in 6-8 weeks old Female C57BL/6 mice through subcutaneous immunization with 100 μl of 150 μg MOG35-55 peptide (PolyPeptide Laboratories San Diego, CA, USA) along with heat killed Mycobacterium Tuberculosis 8 mg/ml (strain H37Ra) (BD, Franklin Lakes, NJ, USA), emulsified in PBS and complete Freund's adjuvant (CFA) (Fisher, Hampton, NH, USA). Mice also received two subsequent doses of 200 and 400 ng of pertussis toxin intraperitoneally on day 0 and 2, respectively (List Biological Laboratories, Campbell, CA, USA). […] During the experiment, animals were weighed for weight change and scored for disease progression on a daily basis. The mean body weight and clinical scores were calculated daily for each group. Clinical scores were recorded as follows: 0, healthy; 1, tail atony; 2, partial paralysis of hind limbs; 3, complete paralysis of hind limbs in combination with partial front limb paralysis; 4, tetraplegia; 5, moribund.
The data were expressed as mean±SEM calculated using GraphPad Prism 9 (GraphPad Inc, La Jolla, CA) and the data sets for all experiments represent three to four experimental replicates per group. […]

[2] = system: immune cells from brain and spleens; experiment: Flow cytometry of immune cells from brain and spleens of EAE mice; type: in vivo, C57BL/6 mice
Experimental: (§1) EAE is a model for human Multiple Sclerosis. EAE was induced in 6-8 weeks old Female C57BL/6 mice through subcutaneous immunization with 100 μl of 150 μg MOG35-55 peptide (PolyPeptide Laboratories San Diego, CA, USA) along with heat killed Mycobacterium Tuberculosis 8 mg/ml (strain H37Ra) (BD, Franklin Lakes, NJ, USA), emulsified in PBS and complete Freund's adjuvant (CFA) (Fisher, Hampton, NH, USA). Mice also received two subsequent doses of 200 and 400 ng of pertussis toxin intraperitoneally on day 0 and 2, respectively (List Biological Laboratories, Campbell, CA, USA). Beginning on day 10, mice received a 100 μL intraperitoneal injection containing either a vehicle (sterile corn oil (CO) with 2% DMSO v/v) or a treatment suspension (10 mg/kg delta-8-THC in sterile CO with 2% DMSO v/v) every day till the end of the experiment. The control mice received the appropriate vehicle. On the appearance of the clinical symptoms, the animals were provided with food and water (Boost and Hydrogel) in the cage bedding to ensure their access to essential nutrients. During the experiment, animals were weighed for weight change and scored for disease progression on a daily basis. The mean body weight and clinical scores were calculated daily for each group. Clinical scores were recorded as follows: 0, healthy; 1, tail atony; 2, partial paralysis of hind limbs; 3, complete paralysis of hind limbs in combination with partial front limb paralysis; 4, tetraplegia; 5, moribund.
BD FACSCelesta flow cytometer was used to quantify the phenotypes of immune cells from brain and spleens. Cells were stained with fluorescently labeled monoclonal antibodies purchased from Biolegend (San Diego, CA). The data obtained from flow cytometer was analyzed on FlowJo software.

CB1 receptors = CB1 receptors (Homo sapiens, UniProt P21554); details: CB1 receptors located in the CNS; cited from earlier work
Sequence of CB1 receptors (P21554 whole entry): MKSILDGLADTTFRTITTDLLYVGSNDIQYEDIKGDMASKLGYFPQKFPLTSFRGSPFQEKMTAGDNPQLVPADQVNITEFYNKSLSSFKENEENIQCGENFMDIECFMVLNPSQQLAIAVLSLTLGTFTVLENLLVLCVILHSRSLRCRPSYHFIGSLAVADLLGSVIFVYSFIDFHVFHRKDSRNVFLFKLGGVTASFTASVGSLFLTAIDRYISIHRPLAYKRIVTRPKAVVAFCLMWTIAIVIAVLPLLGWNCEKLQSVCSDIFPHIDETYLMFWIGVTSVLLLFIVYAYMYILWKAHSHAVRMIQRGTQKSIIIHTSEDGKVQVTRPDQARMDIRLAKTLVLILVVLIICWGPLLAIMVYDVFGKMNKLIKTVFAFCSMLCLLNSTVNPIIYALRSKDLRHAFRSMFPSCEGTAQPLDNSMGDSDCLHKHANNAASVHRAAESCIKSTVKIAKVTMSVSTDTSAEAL

[3] = system: brain-infiltrating CD4+ T cells; experiment: miRNA microarray of CD4+ T cells isolated from the brain of EAE mice; type: in vivo, C57BL/6 mice
Experimental: as §1
(§2) Mononuclear cells isolated from brain were labeled with Phycoerythrin-conjugated (PE-Conjugated) anti-CD4 antibody purchased from Biolegends. […]
(§3) To analyze gene expression, total RNA was purified from brain infiltrating CD4^+ cells using miRNeasy micro kit according to the manufacturer's instructions. RNA purity and concentration were measured by using Nanodrop spectrophotometer from Thermoscientific. […] The results obtained from qRT-PCR were calculated using delta delta Ct (ΔΔCt) method.

[4] = system: brain infiltrating mononuclear cells; experiment: miRNA sequencing (miRNASeq) of brain infiltrating mononuclear cells of EAE mice
[5] = system: brain-infiltrating CD4+ T cells; experiment: qRT-PCR of brain-infiltrating CD4+ T cells from EAE mice; type: in vivo, C57BL/6 mice
Experimental: as §1, §2, §3

[6] = CD4+ T cells isolated from the brain of EAE mice, miRNA microarray

SMILES: CCCCCc1cc(O)c2c(c1)OC(C)(C)[C@@H]1CC=C(C)C[C@@H]21 [Δ-8-THC, delta-8-tetrahydrocannabinol]
- body weight [1]: increase; also recorded: attenuated
- disease clinical scores / paralysis [1]: highly significant reduction; also recorded: attenuated; also recorded: decreased levels of paralysis
- body weight ([1]; listed as Δ8-THC): gain weight
- IL-17+ CD4+ T cells in the brains ([2]; brain): decrease
- RORγt+ (Th17) cells in the brains ([2]; brain): decrease
- Th1 cells (T-bet) in the brain ([2]; brain, expression of T-bet): not in the brain; also recorded: decrease
- IL-17+ CD4+ T cells in the brains ([2]; brain, listed as Δ8-THC): decreased
- RORγt+ (Th17) cells in the brains ([2]; brain, listed as Δ8-THC): decreased
- percentage of macrophages in the brain ([2]; brain-infiltrating pro-inflammatory macrophages): decreased
- percentage of CD4+ T cells in the brain ([2]; flow cytometry, brain): decrease
- percentage of CD4+ T cells in the spleens ([2]; flow cytometry, spleen): decrease
- IL-17+ CD4+ T cells in the spleens ([2]; spleen): decreased
- RORγt+ (Th17) cells in the spleens ([2]; spleen): decrease
- Th1 cells expressing IFN-gamma in the spleens ([2]; spleen): decrease
- percentage of macrophages in the spleens ([2]; spleen): decrease
- Th1 cells (T-bet) in the spleen ([2]; spleen, expression of T-bet): decrease
- RORγt+ (Th17) cells in the spleens ([2]; spleen, listed as Δ8-THC): decreased
- activity at CB1 receptors (CB1 receptors): partial agonist
- expression of miR-21, miR-27a, miR-29a, miR-30a, miR-31, miR-146a, miR-155, and miR-326 [3, 6]: downregulated
- expression of miR-let7, miR-130a, miR-181a, miR-328a and miR-448 [3, 6]: upregulating
- miR expression profile ([3]; brain-infiltrating CD4+ T cells from EAE mice, compared to the controls): distinct signature profile
- miRNA expression (miRNASeq) [4]: regulates a distinct set of miRNAs compared to Δ-9-THC; also recorded: unique miRNA signature profile distinct from Δ-9-THC; also recorded: differential expression of miRNAs
- Foxp3 expression [5]: increase
- IL-10 expression [5]: increased
- TGF-β expression [5]: increased
